Measured values as given in US10167262B2, “Herbicidal substituted 3-arylpyrazoles” (FMC CORPORATION, priority 2014, dated 2019).

Assays:
Format in all cases: in vivo
[1] = test system: blackgrass (Alopecurus myosuroides); test: Test C pre-/postemergence greenhouse test, plant response rating 0-100; details: Postemergence; for Plant response rating, Blackgrass: scale 0 to 100
How it was run: (§1)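 Visual 0–100 control scores, taken 13 to 15 days post-application in a greenhouse, reflect treatment preemergence (seed in loam soil with sand) or postemergence (2–18 cm plants in peat moss, vermiculite medium). A dash marks no result.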

[2] = test system: giant foxtail (Setaria faberii); test: as above; details: Postemergence; for Plant response rating, Foxtail, Giant: scale 0 to 100
How it was run: as §1

[3] = test system: johnsongrass (Sorghum halepense); test: as above; details: Postemergence; for Plant response rating, Johnsongrass: scale 0 to 100
How it was run: as §1

[4] = test system: lambsquarters (Chenopodium album); test: as above; details: Postemergence; for Plant response rating, Lambsquarters: scale 0 to 100
How it was run: as §1

[5] = test system: morningglory (Ipomoea coccinea); test: as above; details: Postemergence
How it was run: as §1

[6] = test system: pigweed (Amaranthus retroflexus); test: as above; details: Postemergence; for Plant response rating, Pigweed: scale 0 to 100
How it was run: as §1

[7] = test system: soybean (Glycine max); test: as above; details: Postemergence; for Plant response rating, Soybean: scale 0 to 100
How it was run: as §1

[8] = test system: velvetleaf (Abutilon theophrasti); test: as above; details: Postemergence
How it was run: as §1

[9] = test system: winter wheat (Triticum aestivum); test: as above; details: Postemergence; for Plant response rating, Wheat: scale 0 to 100
How it was run: as §1

[10] = test system: chickweed (common chickweed, Stellaria media); test: Test C postemergence greenhouse test, plant response rating 0-100; details: for Plant response rating, Chickweed: scale 0 to 100
From the text: (§2) At the same time, plants selected from these crop and weed species and also winter barley (Hordeum vulgare), bermudagrass (Cynodon dactylon), downy bromegrass (Bromus tectorum), canarygrass (Phalaris minor), cocklebur (common cocklebur, Xanthium strumarium), woolly cupgrass (Eriochloa villosa), deadnettle (henbit deadnettle, Lamium amplexicaule), green foxtail (Setaria viridis), goosegrass (Eleusine indica), surinam grass (Brachiaria decumbens), windgrass (Apera spica-venti), chickweed (common chickweed, Stellaria media), kochia (Kochia scoparia), and wild oat (Avena fatua), were planted in pots containing Redi-Earth® planting medium (Scotts Company, 14111 Scottslawn Road, Marysville, Ohio 43041) comprising spaghnum peat moss, vermiculite, wetting agent and starter nutrients and treated with postemergence applications of test chemicals formulated in the same manner. Plants ranged in height from 2 to 18 cm (1- to 4-leaf stage) for postemergence treatments. Treated plants and controls were maintained in a greenhouse for 13 to 15 days, after which time all species were compared to controls and visually evaluated. Plant response ratings, summarized in Table C, are based on a scale of 0 to 100 where 0 is no effect and 100 is complete control. A dash (-) response means no test result.

[11] = test system: kochia (Kochia scoparia); test: as above; details: for Plant response rating, Kochia: scale 0 to 100
From the text: as §2

[12] = test system: wild oat (Avena fatua); test: as above; details: for Plant response rating, Oat, Wild: scale 0 to 100
From the text: as §2

[13] = test system: corn (Zea mays); test: Test C pre-/postemergence greenhouse test, plant response rating 0-100; details: Postemergence; for Plant response rating, Corn: scale 0 to 100
How it was run: as §1

CCn1cc(C(=O)c2ccccc2)c(-c2cc(Br)cc(Br)c2)n1 [Compound 38]
Plant response rating (0 to 100), Blackgrass ([1]; 31 g ai/ha): 0 | Plant response rating (0 to 100), Blackgrass ([1]; 62 g ai/ha): 0 | Plant response rating (0 to 100), Blackgrass ([1]; 125 g ai/ha): 0 | Plant response rating, Blackgrass ([1]; 250 g ai/ha): 5 | Plant response rating (0 to 100), Foxtail, Giant ([2]; 31 g ai/ha): 0 | Plant response rating (0 to 100), Foxtail, Giant ([2]; 62 g ai/ha): 0 | Plant response rating (0 to 100), Foxtail, Giant ([2]; 125 g ai/ha): 0 | Plant response rating, Foxtail, Giant ([2]; 250 g ai/ha): 0 | Plant response rating (0 to 100), Johnsongrass ([3]; 62 g ai/ha): 0 | Plant response rating (0 to 100), Johnsongrass ([3]; 125 g ai/ha): 0 | Plant response rating, Johnsongrass ([3]; 250 g ai/ha): 0 | Plant response rating (0 to 100), Lambsquarters ([4]; 62 g ai/ha): 75 | Plant response rating (0 to 100), Lambsquarters ([4]; 125 g ai/ha): 75 | Plant response rating, Lambsquarters ([4]; 250 g ai/ha): 100 | Plant response rating (0 to 100), Morningglory ([5]; 62 g ai/ha): 0 | Plant response rating (0 to 100), Morningglory ([5]; 125 g ai/ha): 5 | Plant response rating, Morningglory ([5]; 250 g ai/ha, scale 0 to 100): 5 | Plant response rating (0 to 100), Pigweed ([6]; 62 g ai/ha): 85 | Plant response rating, Pigweed ([6]; 250 g ai/ha): 100 | Plant response rating (0 to 100), Soybean ([7]; 62 g ai/ha): 0 | Plant response rating (0 to 100), Soybean ([7]; 125 g ai/ha): 0 | Plant response rating, Soybean ([7]; 250 g ai/ha): 0 | Plant response rating (0 to 100), Velvetleaf ([8]; 62 g ai/ha): 75 | Plant response rating (0 to 100), Velvetleaf ([8]; 125 g ai/ha): 90 | Plant response rating (0 to 100), Wheat ([9]; 62 g ai/ha): 0 | Plant response rating (0 to 100), Wheat ([9]; 125 g ai/ha): 0 | Plant response rating, Wheat ([9]; 250 g ai/ha): 5 | Plant response rating (0 to 100), Chickweed ([10]; 31 g ai/ha): 20 | Plant response rating (0 to 100), Chickweed ([10]; 62 g ai/ha): 50 | Plant response rating (0 to 100), Chickweed ([10]; 125 g ai/ha): 60 | Plant response rating, Chickweed ([10]; 250 g ai/ha): 100 | Plant response rating (0 to 100), Kochia ([11]; 62 g ai/ha): 35 | Plant response rating, Kochia ([11]; 250 g ai/ha): 50 | Plant response rating (0 to 100), Oat, Wild ([12]; 62 g ai/ha): 0 | Plant response rating (0 to 100), Oat, Wild ([12]; 125 g ai/ha): 0 | Plant response rating, Oat, Wild ([12]; 250 g ai/ha): 0

Cn1cc(C(=O)c2ccccc2)c(-c2cc(Br)cc(Br)c2)n1 [Compound 53]
Plant response rating (0 to 100), Blackgrass ([1]; 62 g ai/ha): 0 | Plant response rating (0 to 100), Blackgrass ([1]; 125 g ai/ha): 0 | Plant response rating, Blackgrass ([1]; 250 g ai/ha): 0 | Plant response rating, Blackgrass ([1]; 500 g ai/ha): 0 | Plant response rating (0 to 100), Corn ([13]; 62 g ai/ha): 5 | Plant response rating (0 to 100), Corn ([13]; 125 g ai/ha): 5 | Plant response rating, Corn ([13]; 250 g ai/ha): 5 | Plant response rating, Corn ([13]; 500 g ai/ha): 5 | Plant response rating (0 to 100), Foxtail, Giant ([2]; 62 g ai/ha): 0 | Plant response rating (0 to 100), Foxtail, Giant ([2]; 125 g ai/ha): 0 | Plant response rating, Foxtail, Giant ([2]; 250 g ai/ha): 10 | Plant response rating, Foxtail, Giant ([2]; 500 g ai/ha): 10 | Plant response rating (0 to 100), Johnsongrass ([3]; 62 g ai/ha): 0 | Plant response rating (0 to 100), Johnsongrass ([3]; 125 g ai/ha): 0 | Plant response rating, Johnsongrass ([3]; 250 g ai/ha): 0 | Plant response rating, Johnsongrass ([3]; 500 g ai/ha): 0 | Plant response rating (0 to 100), Lambsquarters ([4]; 125 g ai/ha): 30 | Plant response rating, Lambsquarters ([4]; 250 g ai/ha): 35 | Plant response rating, Lambsquarters ([4]; 500 g ai/ha): 100 | Plant response rating (0 to 100), Pigweed ([6]; 62 g ai/ha): 85 | Plant response rating (0 to 100), Pigweed ([6]; 125 g ai/ha): 85 | Plant response rating, Pigweed ([6]; 250 g ai/ha): 90 | Plant response rating, Pigweed ([6]; 500 g ai/ha): 90 | Plant response rating (0 to 100), Soybean ([7]; 62 g ai/ha): 0 | Plant response rating (0 to 100), Soybean ([7]; 125 g ai/ha): 0 | Plant response rating, Soybean ([7]; 250 g ai/ha): 0 | Plant response rating, Soybean ([7]; 500 g ai/ha): 5 | Plant response rating (0 to 100), Velvetleaf ([8]; 62 g ai/ha): 60 | Plant response rating (0 to 100), Velvetleaf ([8]; 125 g ai/ha): 75 | Plant response rating, Velvetleaf ([8]; 250 g ai/ha, scale 0 to 100): 90 | Plant response rating (0 to 100), Wheat ([9]; 62 g ai/ha): 0 | Plant response rating (0 to 100), Wheat ([9]; 125 g ai/ha): 0 | Plant response rating, Wheat ([9]; 250 g ai/ha): 0 | Plant response rating, Wheat ([9]; 500 g ai/ha): 0 | Plant response rating (0 to 100), Chickweed ([10]; 62 g ai/ha): 50 | Plant response rating (0 to 100), Chickweed ([10]; 125 g ai/ha): 50 | Plant response rating, Chickweed ([10]; 250 g ai/ha): 100 | Plant response rating, Chickweed ([10]; 500 g ai/ha): 100 | Plant response rating (0 to 100), Kochia ([11]; 62 g ai/ha): 25 | Plant response rating (0 to 100), Kochia ([11]; 125 g ai/ha): 45 | Plant response rating, Kochia ([11]; 250 g ai/ha): 60 | Plant response rating, Kochia ([11]; 500 g ai/ha): 60 | Plant response rating (0 to 100), Oat, Wild ([12]; 62 g ai/ha): 0 | Plant response rating (0 to 100), Oat, Wild ([12]; 125 g ai/ha): 0 | Plant response rating, Oat, Wild ([12]; 250 g ai/ha): 0 | Plant response rating, Oat, Wild ([12]; 500 g ai/ha): 0
